Measured values from US11149271B2, “Method and pharmaceutical composition for treating cancer” (Macau University of Science and Technology, priority 2018, dated 2021).

B1: tRNA^Glu(UUC): tRNA isolated from Taxus chinensis (Pilger) Rehd. var. mairei, 76 mer (nucleic acid)
chain: GCCCCUAUCGUCUAGUGGCCCAGGACAUCUCUCUUUCAAGGAGGCAACGGGGAUUCGAUUUCCCCUAGGGGUACCA
modifications: expressed or natural sequence
notes: tRNA isolated from Taxus chinensis (Pilger) Rehd. var. mairei, 76 mer
B2: tRNA^Arg(ACG): tRNA isolated from Taxus chinensis (Pilger) Rehd. var. mairei, 77 mer (nucleic acid)
chain: GGGCCUGUAGCUCAGAGGAUUAGAGCACGUGGUUGCGAACCACGGUGUCGGGGGUUCGAAUCCCUCCUCGCCCACCA
modifications: expressed or natural sequence
notes: tRNA isolated from Taxus chinensis (Pilger) Rehd. var. mairei, 77 mer
B3: tRNA^His(GUG): tRNA isolated from Taxus chinensis (Pilger) Rehd. var. mairei, 78 mer (nucleic acid)
chain: GCGGACGUAGCCAAGUGGUCCAAAGGCAGUGGAUUGUGAAUCCACCACGCGCGGGUUCAAUCCCCGUCGUUCGCCCCA
modifications: expressed or natural sequence
notes: tRNA isolated from Taxus chinensis (Pilger) Rehd. var. mairei, 78 mer
B4: tRNA^Trp(CCA): tRNA isolated from Taxus chinensis (Pilger) Rehd. var. mairei, 75 mer (nucleic acid)
chain: GCGCUCUUAGUUCAGUGCGGUAGAACGCAGGUCUCCAAAACCUGAUGCCGUAGGUUCAAAUCCUACAGAGCGCCA
modifications: expressed or natural sequence
notes: tRNA isolated from Taxus chinensis (Pilger) Rehd. var. mairei, 75 mer
B5: tRNA^Leu(CAA): tRNA isolated from Taxus chinensis (Pilger) Rehd. var. mairei, 84 mer (nucleic acid)
chain: GCCUUGAUGGUGAAAUGGUAGACACGCGAGACUCAAAAUCUCGUGCUAAACAGCGUGGAGGUUCGAAUCCUCUUCAAGGCACCA
modifications: expressed or natural sequence
notes: tRNA isolated from Taxus chinensis (Pilger) Rehd. var. mairei, 84 mer

What was measured:
A2780 cells = assay: MTT cytotoxicity assay on A2780 cells; format: cell-based, human; settings: for IC50 / inhibition of growth and proliferation (cell viability): 48 h; for IC50: MTT; for inhibition of growth and proliferation (cell viability): 25 nM tRNA, RNAiMAX transfection, A2780 ovarian cancer cells (FIG. 3)
Description: (§1) A2780, Taxol-resistant A2780, HCT-8, Taxol-resistant HCT-8 and Taxol-resistant A549 cell lines were cultured in RPMI Medium 1640 medium containing 10% FBS and 1% penicillin/streptomycin. HepG2 and MCF-7 cell lines were cultured in Minimum Essential medium containing 10% FBS and 1% penicillin/streptomycin. All cell lines above were cultured at humidified atmosphere containing 5% CO2 at 37° C.
(§2) In the cytotoxicity assay, exponentially growing cells of each cancer cell line were plated in 96-well microplate at a density of 5000 cells per well in 100 μL of culture medium and allowed to adhere for 24 h before treatment. Serial concentrations of RNA molecules obtained in Example 1 and 2 in a mixture containing a gene delivery carrier, i.e. Lipofectamine™ RNAiMAX Transfection Reagent (Thermo Fisher Scientific, U.S.A.) were then added to the cells. After treated for 48 h, MTT solution (50 μL per well, 1 mg/mL solution) was added to each well and incubated for 4 h at 37° C. Subsequently, 200 μL dimethyl sulfoxide (DMSO) were added and the optical densities of the resulting solutions were calorimetrically determined at 570 nm using a SpectraMax 190 microplate reader (Molecular Devices, Sunnyvale, Calif., U.S.A). Dose-response curves were obtained, and the IC50 values were calculated by GraphPad Prism 5 (GraphPad, La Jolla, Calif., USA). Each experiment was carried out for three times. IC50 results were expressed as means±standard deviation.

[1] = tested on: Taxol-resistant A549T cells; assay: MTT cytotoxicity assay on Taxol-resistant A549 cells; format: cell-based, human
Description: as §1
as §2, with “Each experiment was carried out for three times.” left out

[2] = tested on: A2780 cells tumor xenografts; assay: In vivo antitumor effect, A2780 xenograft in nude mice; parameters: species or system BALB/c nude mice; settings: 2.4 mg/kg with 1% atelocollagen, tumor-adjacent injection once a week; for inhibition of tumor growth (ratio of tumor volume): 28 days (FIG. 7A); for body weight (ratio of weight changes): 28 days (FIG. 7B)
Description: Animal model having xenograft cancer was set. Female BALB/c nude mice (6-8-week old) were purchased from Shanghai SLAC Laboratory Animal Co., Ltd. and maintained at 25° C. with free access to food and water in a special pathogen-free laboratory of the animal environment facilities. The animal experiments were performed in compliance with institutional animal care guidelines and according to committee-approved protocol. To generate tumor xenografts, A2780 cells (4.0×10^6) were injected subcutaneously in 100 μL of 1640 medium through a 27-gauge needle into the armpit of 8-week-old BALB/c nude mice. After 4-5 weeks after tumors had reached 60-70 mm^3, the tumor-bearing nude mice were treated with synthesized tRF with atelocollagen (Koken Co., Ltd., Tokyo, Japan). The concentration of atelocollagen was 1%, and tumor-adjacent injection was performed by one dose of HC11 or HC30 (RNA molecule of SEQ ID NO: 1 or SEQ ID NO: 9) (GenePharma Co., Ltd., Shanghai, China) at concentration of 2.4 mg/kg with atelocollagen once a week. A control group was set up in which vehicle was administered to the mice. A Taxol group for administering 1 mg/kg Taxol to the mice was also set as a comparison. The entire treatment lasted for 28 days.
Tumor diameters were measured at maximum length and maximum width with digital calipers. And the tumor volume was calculated by the formula: volume=(width)^2×length/2. The data were statistically analyzed using GraphPad Prism 5 (GraphPad, La Jolla, Calif., USA). […] In other words, the RNA molecules of the present invention are effective in treating cancer cells both in vivo and in vitro.

[3] = tested on: Taxol-resistant A2780T cells; assay: MTT cytotoxicity assay on Taxol-resistant A2780 cells; format: cell-based, human
Description: as §1
as §2, with “Each experiment was carried out for three times.” left out

[4] = tested on: Taxol-resistant HCT-8 cells (HCT-8T); assay: MTT cytotoxicity assay on Taxol-resistant HCT-8 cells; format: cell-based; settings: 50 nM, 22 bp (FIG. 5F)
Description: as §1, §2

HCT-8 cells = assay: MTT cytotoxicity assay on HCT-8 cells; format: cell-based; settings: for dose dependence of growth and proliferation inhibition: 6.25-100 nM (FIG. 6G, 6H); for IC50: 48 h, MTT
Description: as §1, §2

MCF-7 cells = assay: MTT cytotoxicity assay on MCF-7 cells; format: cell-based, human; settings: 25 nM tRNA, 48 h, RNAiMAX transfection, MCF-7 breast cancer cells (FIG. 3)
Description: as §1, §2

HepG2 cells = assay: MTT cytotoxicity assay on HepG2 cells; format: cell-based, human; settings: 25 nM tRNA, 48 h, RNAiMAX transfection, HepG2 liver cancer cells (FIG. 3)
Description: as §1, §2

Molecule	cytotoxic effect (cell viability) [4]	inhibition of growth and proliferation (cell viability) (A2780 cells)	inhibition of growth and proliferation (cell viability) (MCF-7 cells)	inhibition of growth and proliferation (cell viability) (HepG2 cells)	also measured
HC11: double-stranded RNA, sense SEQ ID NO: 1, antisense SEQ ID NO: 101, 22 bp, 5′-t of tRNA^His(GUG) (sense GCGGACGUAGCCAAGUGGUCCA; antisense UGGACCACUUGGCUACGUCCGC; RNA, backbone and methylation of C not given here; synthetic double-stranded RNA)	–	–	–	–	dose dependence of growth and proliferation inhibition (A2780 cells; A2780 cells, 6.25-100 nM (FIG. 6A)): dose-dependent effect; IC50 (A2780 cells; A2780 cells): 31 nM; dose dependence of growth and proliferation inhibition ([1]; A549T cells, 6.25-200 nM (FIG. 6E)): dose-dependent effect; IC50 ([1]; Taxol-resistant A549T cells, 48 h, MTT): 87.3 nM; inhibition of tumor growth (ratio of tumor volume) [2]: effective in inhibiting the growth of the tumor; body weight (ratio of weight changes) [2]: maintaining a relative constant body weight; dose dependence of growth and proliferation inhibition ([3]; A2780T cells, 6.25-200 nM (FIG. 6C)): dose-dependent effect; IC50 ([3]; Taxol-resistant A2780T cells, 48 h, MTT): 32.3 nM
HC18: double-stranded RNA, sense SEQ ID NO: 13, antisense SEQ ID NO: 113, 22 bp, 5′-t of tRNA^Leu(CAA) (sense GCCUUGAUGGUGAAAUGGUAGA; antisense UCUACCAUUUCACCAUCAAGGC; RNA, backbone and methylation of C not given here; synthetic double-stranded RNA)	useful in treating cancer which is resistant against Taxol	–	–	–	–
HC30: double-stranded RNA, sense SEQ ID NO: 9, antisense SEQ ID NO: 109, 22 bp, 5′-t of tRNA^Trp(CCA) (sense GCGCUCUUAGUUCAGUGCGGUA; antisense UACCGCACUGAACUAAGAGCGC; RNA, backbone and methylation of C not given here; synthetic double-stranded RNA)	–	–	–	–	inhibition of tumor growth (ratio of tumor volume) [2]: effective in inhibiting the growth of the tumor; body weight (ratio of weight changes) [2]: maintaining a relative constant body weight
HC34: double-stranded RNA, sense SEQ ID NO: 25, antisense SEQ ID NO: 125, 22 bp, 5′-t of tRNA^Cys(GCA) (sense GGCGACAUAGCCAAGUGGUAAG; antisense CUUACCACUUGGCUAUGUCGCC; RNA, backbone and methylation of C not given here; synthetic double-stranded RNA)	useful in treating cancer which is resistant against Taxol	–	–	–	–
HC36: double-stranded RNA, sense SEQ ID NO: 29, antisense SEQ ID NO: 129, 22 bp, 5′-t of tRNA^Asn(GUU) (sense CCUCAGUAGCUCAGUGGUAGAG; antisense CUCUACCACUGAGCUACUGAGG; RNA, backbone and methylation of C not given here; synthetic double-stranded RNA)	useful in treating cancer which is resistant against Taxol	–	–	–	dose dependence of growth and proliferation inhibition (HCT-8 cells): dose-dependent effect; IC50 (HCT-8 cells): 8.2 nM
HC37: double-stranded RNA, sense SEQ ID NO: 31, antisense SEQ ID NO: 131, 22 bp, 3′-t of tRNA^Asn(GUU) (sense GGUUCAAAUCCUAUUUGAGGAG; antisense CUCCUCAAAUAGGAUUUGAACC; RNA, backbone and methylation of C not given here; synthetic double-stranded RNA)	useful in treating cancer which is resistant against Taxol	–	–	–	dose dependence of growth and proliferation inhibition (HCT-8 cells): dose-dependent effect; IC50 (HCT-8 cells): 9.3 nM
HC39: double-stranded RNA, sense SEQ ID NO: 35, antisense SEQ ID NO: 135, 22 bp, 3′-t of tRNA^Met(CAU) (sense GGUUCAAAUCCCGUCUCCGCAA; antisense UUGCGGAGACGGGAUUUGAACC; RNA, backbone and methylation of C not given here; synthetic double-stranded RNA)	useful in treating cancer which is resistant against Taxol	–	–	–	–
B1	–	capable of inhibiting the growth and proliferation	capable of inhibiting the growth and proliferation	capable of inhibiting the growth and proliferation	–
B2	–	capable of inhibiting the growth and proliferation	capable of inhibiting the growth and proliferation	capable of inhibiting the growth and proliferation	–
B3	–	capable of inhibiting the growth and proliferation	capable of inhibiting the growth and proliferation	capable of inhibiting the growth and proliferation	–
B4	–	capable of inhibiting the growth and proliferation	capable of inhibiting the growth and proliferation	capable of inhibiting the growth and proliferation	IC50 (A2780 cells; A2780 cells): ~14.3 nM
B5	–	capable of inhibiting the growth and proliferation	capable of inhibiting the growth and proliferation	capable of inhibiting the growth and proliferation	–
